Test results reported in paper PMC9944328 (Nature Communications, 2023).
Values joined by “and” are separate entries in the source; they are usually repeats but may differ in a detail not shown here. Equal entries are not always repeated. Where two headings read alike, the source gives them in different places.

Assays:
[1] = molecular target: SSTR2 mutants (Homo sapiens, UniProt P30874); assay: SSTRs Gi-mediated cAMP inhibition, GloSensor, HEK293, 5 μM forskolin, 15 min room temperature (SSTR2 mutants); assay type: cell-based; parameters: Best-fit Bottom, cAMP inhibition / Best-fit Top, cAMP inhibition / Span, cAMP inhibition / Bottom (best-fit value) / Top (best-fit value) / Span (best-fit value) / Span (best-fit) / Bottom (best-fit) / Top (best-fit) / Best-fit Bottom / Best-fit Top / Best-fit Span / Top / Span: scale not given here
SSTR2 mutants (Homo sapiens, UniProt P30874), sequence (P30874 whole entry Y205R): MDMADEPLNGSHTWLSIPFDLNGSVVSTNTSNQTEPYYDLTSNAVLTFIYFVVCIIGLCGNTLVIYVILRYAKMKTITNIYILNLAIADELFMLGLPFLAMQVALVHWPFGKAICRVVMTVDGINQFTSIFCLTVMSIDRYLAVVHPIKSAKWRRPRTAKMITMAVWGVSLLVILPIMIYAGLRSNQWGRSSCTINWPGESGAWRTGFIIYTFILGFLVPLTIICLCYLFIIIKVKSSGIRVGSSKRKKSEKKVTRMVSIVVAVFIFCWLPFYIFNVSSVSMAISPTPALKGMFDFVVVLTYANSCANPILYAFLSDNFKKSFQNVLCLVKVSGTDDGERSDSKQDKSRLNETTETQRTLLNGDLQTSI
Description: (§1) The levels of the intracellular 3′, 5′-cyclic AMP (cAMP) were measured by the GloSensor cAMP assay (Promega) as described in the previous studies[28],[41] which has been widely used. The human full-length SSTRs and mutants were cloned into the pcDNA3.1+ vector with a HA signal sequence followed by a Flag tag at the N-terminus. HEK293 cells (ATCC, CRL-1573) were seeded into 6-well microplates at a density of 1.0 × 10^6 cells/well and cultured for 24 h at 37 °C with 5% CO2. Cells were then co-transfected with SSTR wild-type or mutants and GloSensor plasmids. After 24 h of transfection, the cells were dissociated with TrypLE™ Express Enzyme (1X) (Thermo Fisher Scientific) and collected by centrifugation at 500 × g for 5 min. Then the collected cells were suspended in Hank’s balanced salt solution [HBSS (Thermo Fisher Scientific)] supplemented with […] (YEASEN), and then the suspension cells were seeded into 96-well plates with 90 μl/well. After incubating at room temperature for 40 min, 5 μM forskolin and ligands diluted in HBSS were added to each well and the plates were incubated at room temperature for 15 min. […] were measured using the Synergy H1 microplate reader (BioTek) and the data presented are means of at least three independent experiments.

[2] = molecular target: T1, SSTR2 mutants (Homo sapiens, UniProt P30874, I195A); assay: as above; assay type: cell-based; parameters: Best-fit Bottom, cAMP inhibition / Best-fit Top, cAMP inhibition / Span, cAMP inhibition / Bottom (best-fit value) / Top (best-fit value) / Span (best-fit value) / Span (best-fit) / Bottom (best-fit) / Top (best-fit) / Best-fit Bottom / Best-fit Top / Best-fit Span / Top / Span: scale not given here; conditions: I195A, best-fit, runs 1-3
T1 construct: The human full-length SSTRs and mutants were cloned into the pcDNA3.1+ vector; expressed in transfected cells; host or cells: HEK293 (ATCC, CRL-1573)
T1 sequence (P30874 whole entry I195A): as the sequence (P30874 whole entry Y205R) above, with I195A, R205Y counted along it
Description: as §1

[3] = molecular target: T2, SSTR2 mutants (Homo sapiens, UniProt P30874, L99A); assay: as above; assay type: cell-based; parameters: Best-fit Bottom, cAMP inhibition / Best-fit Top, cAMP inhibition / Span, cAMP inhibition / Bottom (best-fit value) / Top (best-fit value) / Span (best-fit value) / Span (best-fit) / Bottom (best-fit) / Top (best-fit) / Best-fit Bottom / Best-fit Top / Best-fit Span / Top / Span: scale not given here; conditions: L99A, best-fit, runs 1-3
T2 construct: The human full-length SSTRs and mutants were cloned into the pcDNA3.1+ vector; expressed in transfected cells; host or cells: HEK293 (ATCC, CRL-1573)
T2 sequence (P30874 whole entry L99A): as the sequence (P30874 whole entry Y205R) above, with L99A, R205Y counted along it
Description: as §1

[4] = molecular target: T3, SSTR2 mutants (Homo sapiens, UniProt P30874, T194A); assay: as above; assay type: cell-based; parameters: Best-fit Bottom, cAMP inhibition / Best-fit Top, cAMP inhibition / Span, cAMP inhibition / Bottom (best-fit value) / Top (best-fit value) / Span (best-fit value) / Span (best-fit) / Bottom (best-fit) / Top (best-fit) / Best-fit Bottom / Best-fit Top / Best-fit Span / Top / Span: scale not given here; conditions: T194A, best-fit, runs 1-3
T3 construct: The human full-length SSTRs and mutants were cloned into the pcDNA3.1+ vector; expressed in transfected cells; host or cells: HEK293 (ATCC, CRL-1573)
T3 sequence (P30874 whole entry T194A): as the sequence (P30874 whole entry Y205R) above, with T194A, R205Y counted along it
Description: as §1

[5] = molecular target: T4, SSTR2 mutants (Homo sapiens, UniProt P30874, Y50A); assay: as above; assay type: cell-based; parameters: Best-fit Bottom, cAMP inhibition / Best-fit Top, cAMP inhibition / Span, cAMP inhibition / Bottom (best-fit value) / Top (best-fit value) / Span (best-fit value) / Span (best-fit) / Bottom (best-fit) / Top (best-fit) / Best-fit Bottom / Best-fit Top / Best-fit Span / Top / Span: scale not given here; conditions: Y50A, best-fit, runs 1-3
T4 construct: The human full-length SSTRs and mutants were cloned into the pcDNA3.1+ vector; expressed in transfected cells; host or cells: HEK293 (ATCC, CRL-1573)
T4 sequence (P30874 whole entry Y50A): as the sequence (P30874 whole entry Y205R) above, with Y50A, R205Y counted along it
Description: as §1

[6] = molecular target: SSTR3 mutants (Homo sapiens, UniProt P32745, F296D); assay: SSTRs Gi-mediated cAMP inhibition, GloSensor, HEK293 (SSTR3 mutants); assay type: cell-based; parameters: Bottom / Top / Span / Top (best-fit): unit not given here
SSTR3 mutants, sequence (P32745 whole entry F296D, the tested form may be a part): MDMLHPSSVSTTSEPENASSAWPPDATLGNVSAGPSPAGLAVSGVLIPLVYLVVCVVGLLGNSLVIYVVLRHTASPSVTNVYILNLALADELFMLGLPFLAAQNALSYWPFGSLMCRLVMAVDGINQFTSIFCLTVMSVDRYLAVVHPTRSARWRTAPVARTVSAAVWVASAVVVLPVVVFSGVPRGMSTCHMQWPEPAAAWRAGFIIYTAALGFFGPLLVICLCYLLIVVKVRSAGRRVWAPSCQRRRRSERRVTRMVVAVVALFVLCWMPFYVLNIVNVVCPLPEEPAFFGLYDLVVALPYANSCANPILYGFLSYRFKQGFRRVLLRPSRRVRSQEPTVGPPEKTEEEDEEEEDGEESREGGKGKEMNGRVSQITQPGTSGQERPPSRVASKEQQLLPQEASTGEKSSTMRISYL

[7] = molecular target: SSTR2 mutants (Homo sapiens, UniProt P30874, F294A); assay: Bystander BRET endosomal trafficking (β-arrestin 1-Nluc, FYVE-mVenus), HEK293 (SSTR2 mutants); conditions: for Bottom: best-fit value;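 for Bottom: percent of maximal wild-type response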;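 for all read-outs here: Read-out is the BRET ratio between Nluc-fused β-arrestin 1 and the early endosome marker FYVE-mVenus, measured after ligand addition with coelenterazine h as substrate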
SSTR2 mutants (Homo sapiens, UniProt P30874, F294A), sequence (P30874 whole entry F294A, the tested form may be a part): as the sequence (P30874 whole entry Y205R) above, with R205Y, F294A counted along it
Description: (§2) Wild-type or mutant SSTR2, β-arrestin 1-Nluc and FYVE-mVenus were co-transfected in HEK293 cells at a ratio of 1:0.5:4 on six-well plates. The next day, the transfected cells were plated on white 96-well and incubated overnight, and then cells were incubated with 90 µL HBSS containing 20 mM HEPES and coelenterazine h (5 µM) at room temperature for 40 min. After incubation, ligand was added and the signal was measured using the Synergy H1 microplate reader (BioTek) to determine a BRET ratio.

[8] = molecular target: SSTR2 mutants (Homo sapiens, UniProt P30874, N276A); assay: as above; conditions: best-fit value
SSTR2 mutants (Homo sapiens, UniProt P30874, N276A), sequence (P30874 whole entry N276A): as the sequence (P30874 whole entry Y205R) above, with R205Y, N276A counted along it
Description: as §2

In the case of `N#Cc1cccc(-c2ccc3ncc(-c4cc(F)cc(F)c4)c(N4CCC(N)CC4)c3c2)c1O` [paltusotine], the EC50 ([1]; EC50, D295F, run 1) is reported as 0.324 nM, the EC50 ([1]; EC50, D295F, run 2) is reported as 0.205 nM and the EC50 ([1]; EC50, D295F, run 3) is reported as 1.56 nM. For the same compound, the EC50 ([1]; EC50, F294Y, run 1) was 0.735 nM, the EC50 ([1]; EC50, F294Y, run 3) was 0.676 nM and the EC50 ([1]; EC50, Y205R, run 1) was 0.344 nM. For the same compound, the EC50 ([1]; EC50, Y205R, run 2) was 0.237 nM, the Span [2] was 93.79 and 93.25 and 119.7 and the Top [2] was 101.8 and 93.82 and 123. For the same compound, the Span [3] was 97 and 104.2 and 101.2, the Top [3] was 103.3 and 108.8 and 111.2 and the Span [4] was 81 and 79.63 and 75.68. For the same compound, the Top [4] was 82.51 and 80.87 and 82.26, the Span [5] was 121 and 122.3 and the Top [5] was 113.5 and 115.2 and 115.4. The EC50 [6] was 309 ± 6.3 nM, the Emax ([6]; HEK293) was 65.5 ± 6.4% and the “Fold of WT” value ([6]; Suppl. Table 4, SSTR3 F296(7.35)D) was 4.84. It also gave a Bottom ([6]; best-fit, SSTR3 F296D-1) of 5.089, a LogEC50 ([6]; best-fit, SSTR3 F296D-1) of -6.01 and a Span ([6]; best-fit, SSTR3 F296D-1) of 99.77. It also gave a Top ([6]; best-fit, SSTR3 F296D-1) of 104.9, an EC50 ([6]; best-fit, SSTR3 F296D-1, read-out: EC50) of 978 nM and a Bottom ([6]; best-fit, SSTR3 F296D-2) of 18.98. It also gave a LogEC50 ([6]; best-fit, SSTR3 F296D-2) of -6.627, a Span ([6]; best-fit, SSTR3 F296D-2) of 120 and a Top ([6]; best-fit, SSTR3 F296D-2) of 139. The EC50 ([6]; best-fit, SSTR3 F296D-2, read-out: EC50) was 236 nM, the Bottom ([6]; best-fit, SSTR3 F296D-3) was 12.18 and the LogEC50 ([6]; best-fit, SSTR3 F296D-3) was -6.94. For the same compound, the Span ([6]; best-fit, SSTR3 F296D-3) was 133.1, the Top ([6]; best-fit, SSTR3 F296D-3) was 145.3 and the EC50 ([6]; best-fit, SSTR3 F296D-3, read-out: EC50) was 115 nM. It also gave an EC50 [7] of 2094 ± 1.18 nM, an Emax ([7]; HEK293) of 95.1 ± 4.53% and a Bottom ([7]; F294A-1 (run 1)) of 0.7189. The Bottom ([7]; F294A-2 (run 2)) was -2.342, the Bottom ([7]; F294A-3 (run 3)) was -0.7874 and the Bottom ([8]; N276A-1 (run 1)) was 0.05559. For the same compound, the Bottom ([8]; N276A-2 (run 2)) was -0.1543 and the Bottom ([8]; N276A-3 (run 3)) was -2.441.
